Data published in the NIST ThermoML archive (doi:10.1021/acs.jced.5b00303).

Conditions: Pendant drop shape

CCCCCC[n+]1ccn(C)c1.N#C[C-](C#N)C#N [3-hexyl-1-methylimidazolium tricyanomethanide]
Conditions | surface tension liquid-gas [mN/m]
283.23 K | 44.44
293.35 K | 43.55
303.33 K | 42.88
313.26 K | 42.09
323.25 K | 41.49
333.18 K | 40.8
343.11 K | 39.91
353.53 K | 39.07

CCCCCCCCn1cc[n+](C)c1.N#CC(=C=[N-])C#N [1-methyl-3-octylimidazolium tricyanomethanide]
Conditions | surface tension liquid-gas [mN/m]
283.28 K | 40.07
293.21 K | 39.03
303.32 K | 38.38
313.21 K | 37.65
323.12 K | 36.89
333.1 K | 36.09
343.16 K | 35.31
353.03 K | 34.89

CCCCn1cc[n+](C)c1.N#C[B-](C#N)(C#N)C#N [1-butyl-3-methyl-1H-imidazolium tetracyanoborate]
Conditions | surface tension liquid-gas [mN/m]
283.23 K | 45.23
293.23 K | 44.64
303.3 K | 43.65
313.24 K | 42.62
323.24 K | 41.71
333.2 K | 40.81
343.22 K | 39.87
353.3 K | 39.08

Cn1cc[n+](C)c1.N#C[B-](C#N)(C#N)C#N [1,3-dimethylimidazolium tetracyanoborate]
Conditions | surface tension liquid-gas [mN/m]
283.19 K | 35.44
293.24 K | 34.74
303.28 K | 33.67
313.26 K | 33.07
323.17 K | 32.05
333.17 K | 31.37
343.13 K | 30.6
353.24 K | 29.98

CCn1cc[n+](C)c1.N#C[B-](C#N)(C#N)C#N [1-ethyl-3-methylimidazolium tetracyanoborate]
Conditions | surface tension liquid-gas [mN/m]
283.1 K | 49.66
293.26 K | 48.72
303.35 K | 47.57
313.29 K | 46.45
323.2 K | 45.67
333.09 K | 44.87
343.12 K | 44.04
353.45 K | 43.4

CCCCCCCCn1cc[n+](C)c1.N#C[B-](C#N)(C#N)C#N [1-methyl-3-octylimidazolium tetracyanoborate]
Conditions | surface tension liquid-gas [mN/m]
283.23 K | 38.64
293.32 K | 38.01
303.3 K | 36.81
313.27 K | 36.18
323.23 K | 35.19
333.18 K | 34.15
343.21 K | 33.44
353.28 K | 32.41

CCn1cc[n+](C)c1.N#C[C-](C#N)C#N [1-ethyl-3-methyl-1H-imidazolium tricyanomethanide]
Conditions | surface tension liquid-gas [mN/m]
283.18 K | 51.1
293.25 K | 50.4
303.24 K | 49.39
313.1 K | 48.62
323.08 K | 47.83
333.17 K | 47.19
343.09 K | 46.55
353.36 K | 44.68

CCCCCCn1cc[n+](C)c1.N#C[B-](C#N)(C#N)C#N [1-hexyl-3-methylimidazolium tetracyanoborate]
Conditions | surface tension liquid-gas [mN/m]
283.27 K | 41.99
293.29 K | 41.32
303.27 K | 40.4
313.29 K | 39.39
323.26 K | 38.6
333.2 K | 37.61
343.18 K | 37
353.25 K | 35.86
